± gives the expanded uncertainty stated by the source.
Settings: Liquid, Vibrating tube method

CCC[n+]1ccccc1C.O=S(=O)([N-]S(=O)(=O)C(F)(F)F)C(F)(F)F
Settings	mass density [kg/m3]
283.15 K, 100 kPa	1478.5 ± 0.7
283.15 K, 2500 kPa	1480.5 ± 0.7
283.15 K, 5000 kPa	1482.1 ± 0.7
283.15 K, 7500 kPa	1483.7 ± 0.8
283.15 K, 10000 kPa	1485.4 ± 0.8
283.15 K, 15000 kPa	1488.6 ± 0.9
283.15 K, 20000 kPa	1491.5 ± 1
283.15 K, 25000 kPa	1494.5 ± 1.1
283.15 K, 30000 kPa	1497.3 ± 1.2
283.15 K, 35000 kPa	1500.1 ± 1.3
283.15 K, 45000 kPa	1505.5 ± 1.6
283.15 K, 55000 kPa	1510.5 ± 1.8
283.15 K, 65000 kPa	1515.3 ± 2
288.15 K, 100 kPa	1473.7 ± 0.6
288.15 K, 2500 kPa	1475.7 ± 0.7
288.15 K, 5000 kPa	1477.3 ± 0.7
288.15 K, 7500 kPa	1479 ± 0.8
288.15 K, 10000 kPa	1480.6 ± 0.8
288.15 K, 15000 kPa	1483.7 ± 0.9
288.15 K, 20000 kPa	1486.8 ± 1
288.15 K, 25000 kPa	1489.9 ± 1.1
288.15 K, 30000 kPa	1492.7 ± 1.2
288.15 K, 35000 kPa	1495.6 ± 1.3
288.15 K, 45000 kPa	1500.9 ± 1.5
288.15 K, 55000 kPa	1506 ± 1.8
288.15 K, 65000 kPa	1510.9 ± 2
293.15 K, 100 kPa	1469 ± 0.6
293.15 K, 2500 kPa	1470.9 ± 0.7
293.15 K, 5000 kPa	1472.6 ± 0.7
293.15 K, 7500 kPa	1474.3 ± 0.8
293.15 K, 10000 kPa	1475.9 ± 0.8
293.15 K, 15000 kPa	1479.2 ± 0.9
293.15 K, 20000 kPa	1482.3 ± 1
293.15 K, 25000 kPa	1485.3 ± 1.1
293.15 K, 30000 kPa	1488.3 ± 1.2
293.15 K, 35000 kPa	1491.1 ± 1.3
293.15 K, 45000 kPa	1496.6 ± 1.5
293.15 K, 55000 kPa	1501.8 ± 1.7
293.15 K, 65000 kPa	1506.7 ± 2
298.15 K, 100 kPa	1464.2 ± 0.6
298.15 K, 2500 kPa	1466.1 ± 0.7
298.15 K, 5000 kPa	1467.8 ± 0.7
298.15 K, 7500 kPa	1469.6 ± 0.8
298.15 K, 10000 kPa	1471.2 ± 0.8
298.15 K, 15000 kPa	1474.5 ± 0.9
298.15 K, 20000 kPa	1477.7 ± 1
298.15 K, 25000 kPa	1480.8 ± 1.1
298.15 K, 30000 kPa	1483.8 ± 1.2
298.15 K, 35000 kPa	1486.6 ± 1.3
298.15 K, 45000 kPa	1492.2 ± 1.5
298.15 K, 55000 kPa	1497.4 ± 1.7
298.15 K, 65000 kPa	1502.5 ± 1.9
303.15 K, 100 kPa	1459.5 ± 0.6
303.15 K, 2500 kPa	1461.5 ± 0.7
303.15 K, 5000 kPa	1463.2 ± 0.7
303.15 K, 7500 kPa	1465 ± 0.8
303.15 K, 10000 kPa	1466.6 ± 0.8
303.15 K, 15000 kPa	1470 ± 0.9
303.15 K, 20000 kPa	1473.2 ± 1
303.15 K, 25000 kPa	1476.4 ± 1.1
303.15 K, 30000 kPa	1479.5 ± 1.2
303.15 K, 35000 kPa	1482.4 ± 1.3
303.15 K, 45000 kPa	1488 ± 1.5
303.15 K, 55000 kPa	1493.3 ± 1.7
303.15 K, 65000 kPa	1498.4 ± 1.9
308.15 K, 100 kPa	1454.8 ± 0.6
308.15 K, 2500 kPa	1456.8 ± 0.7
308.15 K, 5000 kPa	1458.5 ± 0.7
308.15 K, 7500 kPa	1460.3 ± 0.8
308.15 K, 10000 kPa	1462 ± 0.8
308.15 K, 15000 kPa	1465.4 ± 0.9
308.15 K, 20000 kPa	1468.7 ± 1
308.15 K, 25000 kPa	1471.9 ± 1.1
308.15 K, 30000 kPa	1475 ± 1.2
308.15 K, 35000 kPa	1478 ± 1.3
308.15 K, 45000 kPa	1483.7 ± 1.5
308.15 K, 55000 kPa	1489.1 ± 1.7
308.15 K, 65000 kPa	1494.2 ± 1.9
313.15 K, 100 kPa	1450 ± 0.6
313.15 K, 2500 kPa	1452.1 ± 0.7
313.15 K, 5000 kPa	1453.9 ± 0.7
313.15 K, 7500 kPa	1455.8 ± 0.8
313.15 K, 10000 kPa	1457.5 ± 0.8
313.15 K, 15000 kPa	1461 ± 0.9
313.15 K, 20000 kPa	1464.3 ± 1
313.15 K, 25000 kPa	1467.5 ± 1.1
313.15 K, 30000 kPa	1470.7 ± 1.2
313.15 K, 35000 kPa	1473.7 ± 1.3
313.15 K, 45000 kPa	1479.5 ± 1.5
313.15 K, 55000 kPa	1485 ± 1.7
313.15 K, 65000 kPa	1490.2 ± 1.9
318.15 K, 100 kPa	1445.4 ± 0.6
318.15 K, 2500 kPa	1447.4 ± 0.7
318.15 K, 5000 kPa	1449.3 ± 0.7
318.15 K, 7500 kPa	1451.1 ± 0.8
318.15 K, 10000 kPa	1452.9 ± 0.8
318.15 K, 15000 kPa	1456.4 ± 0.9
318.15 K, 20000 kPa	1459.9 ± 1
318.15 K, 25000 kPa	1463.1 ± 1.1
318.15 K, 30000 kPa	1466.4 ± 1.2
318.15 K, 35000 kPa	1469.4 ± 1.3
318.15 K, 45000 kPa	1475.3 ± 1.5
318.15 K, 55000 kPa	1480.8 ± 1.7
318.15 K, 65000 kPa	1486.1 ± 1.9
323.15 K, 100 kPa	1440.7 ± 0.6
323.15 K, 2500 kPa	1442.8 ± 0.7
323.15 K, 5000 kPa	1444.7 ± 0.7
323.15 K, 7500 kPa	1446.7 ± 0.7
323.15 K, 10000 kPa	1448.5 ± 0.8
323.15 K, 15000 kPa	1452 ± 0.9
323.15 K, 20000 kPa	1455.5 ± 1
323.15 K, 25000 kPa	1458.7 ± 1.1
323.15 K, 30000 kPa	1462 ± 1.2
323.15 K, 35000 kPa	1465.2 ± 1.3
323.15 K, 45000 kPa	1471.2 ± 1.5
323.15 K, 55000 kPa	1476.9 ± 1.7
323.15 K, 65000 kPa	1482.1 ± 1.9
328.15 K, 100 kPa	1436.1 ± 0.6
328.15 K, 2500 kPa	1438.3 ± 0.7
328.15 K, 5000 kPa	1440.2 ± 0.7
328.15 K, 7500 kPa	1442.1 ± 0.7
328.15 K, 10000 kPa	1443.9 ± 0.8
328.15 K, 15000 kPa	1447.5 ± 0.9
328.15 K, 20000 kPa	1451 ± 1
328.15 K, 25000 kPa	1454.5 ± 1.1
328.15 K, 30000 kPa	1457.8 ± 1.2
328.15 K, 35000 kPa	1460.9 ± 1.3
328.15 K, 45000 kPa	1467.1 ± 1.5
328.15 K, 55000 kPa	1472.7 ± 1.7
328.15 K, 65000 kPa	1478.1 ± 1.9
333.15 K, 100 kPa	1431.4 ± 0.6
333.15 K, 2500 kPa	1433.6 ± 0.6
333.15 K, 5000 kPa	1435.5 ± 0.7
333.15 K, 7500 kPa	1437.5 ± 0.7
333.15 K, 10000 kPa	1439.4 ± 0.8
333.15 K, 15000 kPa	1443.1 ± 0.9
333.15 K, 20000 kPa	1446.6 ± 1
333.15 K, 25000 kPa	1450.1 ± 1.1
333.15 K, 30000 kPa	1453.4 ± 1.2
333.15 K, 35000 kPa	1456.7 ± 1.2
333.15 K, 45000 kPa	1462.8 ± 1.4
333.15 K, 55000 kPa	1468.6 ± 1.6
333.15 K, 65000 kPa	1474.2 ± 1.8
